Experimental data as given in US4361553A, “Therapeutic uses of dynorphin” (Regents of the University of California, priority 1981, dated 1982).

Tests used:
naive mice = test: Tail-flick analgesia, morphine s.c. with or without dynorphin-(1-13) i.c.v., naive group (Example III); type: in vivo
Description: (§1) Male simonesen ICR mice (Gilroy, CA) weighing between 20-25 g were housed for at least one day prior to experimentation, and used within 5 days. Each mouse was used only once.
(§2) Analgesia was measured by the tail-flick method of D'Amour and Smith, J.Pharmac.Exp.Ther., 72, pp. 74-79 (1941), incorporated herein by reference, as modified by Tulunay and Takemori, J.Pharmac.Exp.Ther., 190, pp. 395-400 (1974), incorporated herein by reference. […] Nonresponding animals were removed from the heat stimulus when reaction times exceeded 10 sec. to avoid the tail damage.
(§3) Drugs were injected 30 min prior to testing, unless otherwise indicated.
(§4) The animals were separated into two groups.
(§5) The ED50 values, their 95% confidence limits and significance of the potency ratio between two ED50 values were determined by the method of Litchfield and Wilcoxon, J.Pharmacol.Exp.Ther, 96:99-113 (1949), incorporated herein by reference.

[1] = Addictiveness compared with morphine; type: in vivo
morphine tolerant mice [2] = test: Tail-flick analgesia, morphine s.c. with or without dynorphin-(1-13) i.c.v., morphine tolerant group (Example I); type: in vivo; settings: dynorphin alone up to 50 μg/mouse
Description: as §1, §2, §3, §4, §5

guinea pig ileum = settings: cited from earlier work
mouse vas deferens = settings: cited from earlier work
morphine dependent mice = test: Spontaneous withdrawal jumping after removal of morphine pellets (Example IV); type: in vivo; settings: compared with saline
Description: Mice which jumped were separated and received 4 μl of saline i.c.v. or different doses of dynorphin, and tested 30 min and then 60 min after injection.

morphine tolerant mice [3] = test: Tail-flick analgesia, β-endorphin i.c.v. with or without dynorphin-(1-13) i.c.v., morphine tolerant group (Example II); type: in vivo; settings: for ED50 of β-endorphin: i.c.v.
Description: as §1, §2, §3, §4, §5

Molecule: CN1CC[C@]23c4c5ccc(O)c4O[C@H]2[C@@H](O)C=C[C@H]3[C@H]1C5.O=S(=O)(O)O [Morphine, morphine sulfate]
- Analgesia (%) (naive mice; morphine 2 mg/kg s.c. alone): 10%
- Analgesia (%) (naive mice; morphine 4 mg/kg s.c. alone): 30%
- Analgesia (%) (naive mice; morphine 7.5 mg/kg s.c. alone): 80%

Molecule: CC[C@H](C)[C@H](NC(=O)[C@H](CCCNC(=N)N)NC(=O)[C@H](CCCNC(=N)N)NC(=O)[C@H](CC(C)C)NC(=O)[C@H](Cc1ccccc1)NC(=O)CNC(=O)CNC(=O)[C@@H](N)Cc1ccc(O)cc1)C(=O)N[C@@H](CCCNC(=N)N)C(=O)N1CCC[C@H]1C(=O)N[C@@H](CCCCN)C(=O)N[C@@H](CC(C)C)C(=O)N[C@@H](CCCCN)C(=O)O [dynorphin-(1-13)]
- Times less addictive than morphine [1]: at least 100 times

Molecule: dynorphin
- Own analgesic potency (morphine tolerant mice [2]): no analgesic potency
- Agonist properties in guinea pig ileum (guinea pig ileum): potent agonist properties
- Agonist properties in mouse vas deferens (mouse vas deferens): potent agonist properties
- Effect on withdrawal (morphine dependent mice): significantly reduced, or repressed, withdrawal

Molecule: β-endorphin
- ED50 of β-endorphin (morphine tolerant mice [3]; in the presence of 10 μg dynorphin-(1-13)): about 1.00 μg/mouse
- ED50 of β-endorphin (morphine tolerant mice [3]; in the presence of 20 μg dynorphin-(1-13)): about 0.55 μg/mouse
- Analgesia (%) (morphine tolerant mice [3]; β-endorphin 1 μg/mouse i.c.v. alone): 10%
- Analgesia (%) (morphine tolerant mice [3]; β-endorphin 2 μg/mouse i.c.v. alone): 40%
- Analgesia (%) (morphine tolerant mice [3]; β-endorphin 6 μg/mouse i.c.v. alone): 100%
